Assays:
pyridoxal kinase (PdxK) [1] = target: T1, pyridoxal kinase (PdxK) (Homo sapiens, UniProt O00764); assay: enzyme activity assay; format: biochemical; parameters: human recombinant
T1 sequence (O00764 1-312): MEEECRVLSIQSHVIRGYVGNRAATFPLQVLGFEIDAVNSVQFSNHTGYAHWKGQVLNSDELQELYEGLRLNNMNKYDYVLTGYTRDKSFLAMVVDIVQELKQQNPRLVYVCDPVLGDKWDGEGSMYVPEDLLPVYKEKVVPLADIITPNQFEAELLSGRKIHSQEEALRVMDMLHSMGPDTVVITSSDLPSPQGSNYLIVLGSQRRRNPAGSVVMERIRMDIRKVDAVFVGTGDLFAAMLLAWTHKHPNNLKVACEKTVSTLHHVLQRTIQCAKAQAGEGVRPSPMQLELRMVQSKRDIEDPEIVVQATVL

pyridoxal kinase (PdxK) [2] = target: T1, pyridoxal kinase (PdxK); assay: steady-state enzyme kinetics ([…] nm), Lineweaver-Burk and secondary plots; format: biochemical; parameters: wild-type human recombinant

SMILES | enzyme activity assay (pyridoxal kinase (PdxK) [1]) | Ki (pyridoxal kinase (PdxK) [2])
CCCCCCCCCCOC(=O)C[n+]1csc(CCO)c1C [DMHT, 3-decyloxycarbonylmethyl-4-methyl-5-(2-hydroxyethyl) thiazolium] | Figure 2B shows that both compounds affected PdxK activity, supporting the direct interaction of the enzyme | –
Cc1ncc(C[n+]2csc(CCOP(=O)([O-])OP(=O)(O)O)c2C)c(N)n1 [thiamin diphosphate] | – | 3300 µM
Cc1ncc(C[n+]2csc(CCO)c2C)c(N)n1 [thiamin] | – | 2200 µM
